Where two headings read alike, the source gives them in different places.
How the values were obtained:
[1] = test system: guinea pigs with stimulated (enlarged) popliteal lymph nodes; settings: for ratio of signal intensity lymph node to muscle / % signal enhancement popliteal lymph node: 0.05 mmol/kg i.v. bolus; for % signal enhancement popliteal lymph node: T1-weighted MR 1.5 T
Method: Female guinea pigs (370-450 g, n=3) had their lymph nodes stimulated by egg yolk emulsion (0.1 mL) intramuscularly in the thigh and lower legs on six days. MS-325 (0.05 mmol/kg) was administered as an i.v. bolus
MR system: Head scanner (Allegra, 1.5 Tesla; Siemens AG, Erlangen, Germany), T1-weighted sequence (T1-TSE, TR/TE 666/12 ms, slice thickness 1.1 mm, acquisition time 3:49).
Imaging and analysis: The animals were imaged prior to contrast agent administration and 1, 15, 30, 60, 90, 120, and […] post injection. The percent signal intensity enhancement was calculated in the popliteal lymph nodes and in surrounding muscle. The ratio of signal intensity between the lymph node and the surrounding muscle was also determined.

[2] = test system: VX2 tumor bearing rabbits, metastatic iliacal lymph nodes; experiment: MR imaging of lymph node metastases in VX2 tumor rabbit model after intravenous injection; type: in vivo, New Zealand White rabbits; settings: for delineation / differentiation of functional and metastatic lymph node tissue: i.v., MS-325 0.05 mmol Gd/kg, Gd-DTPA 0.2 mmol Gd/kg, intraindividual comparison
Method: New Zealand White rabbits (3-4 kg, n=6) were inoculated intramuscularly into the thigh with 2 to 3 pieces (1×1 mm) of VX2 carcinoma cells to produce metastases in […] nodes. The imaging experiments were performed 3 to 6 weeks after the injection of tumor cells. […] Contrast agents: […] Imaging: Intraindividual comparison of lymphographic effects in […] nodes. day 1: Gd-DTPA (5 to 120 minutes p.i.). day 2: […] Assessment of technical success and quality of MR imaging, and detection of lymph node metastases. Histology: Microscopic examination after H/E staining; correlation with MR findings.

[3] = 0 min post injection (prior to contrast agent)
[4] = 5 to 15 min after intravenous injection, 0.05 mmol Gd/kg body weight

For `O=C([O-])CN(CCN(CC(=O)[O-])C[C@H](COP(=O)([O-])OC1CCC(c2ccccc2)(c2ccccc2)CC1)N(CC(=O)[O-])CC(=O)[O-])CC(=O)[O-].[Gd+3].[H+].[H+].[H+]` [MS-325], the “ratio of signal intensity lymph node to muscle” value (“ratio” below) [1, 3] was 1.2 ± 0.1, the “% signal enhancement popliteal lymph node” value [1, 3] was 0 ± 0% and the “ratio” value ([1]; 1 min post injection) was 1.6 ± 0.1. The “% signal enhancement popliteal lymph node” value ([1]; 1 min post injection) was 87 ± 11%, the “ratio” value ([1]; 15 min post injection) was 1.4 ± 0.1 and the “% signal enhancement popliteal lymph node” value ([1]; 15 min post injection) was 67 ± 11%. The “ratio” value ([1]; 30 min post injection) was 1.4 ± 0.1, the “% signal enhancement popliteal lymph node” value ([1]; 30 min post injection) was 57 ± 6% and the “ratio” value ([1]; 60 min post injection) was 1.3 ± 0.1. For the same molecule, the “% signal enhancement popliteal lymph node” value ([1]; 60 min post injection) was 45 ± 6%, the “ratio” value ([1]; 90 min post injection) was 1.3 ± 0.1 and the “% signal enhancement popliteal lymph node” value ([1]; 90 min post injection) was 37 ± 4%. The “ratio” value ([1]; 120 min post injection) was 1.3 ± 0.1, the “% signal enhancement popliteal lymph node” value ([1]; 120 min post injection) was 31 ± 6% and the “ratio” value ([1]; 2440 min post injection) was 1.1 ± 0.2. For the same molecule, the “% signal enhancement popliteal lymph node” value ([1]; 2440 min post injection) was −8 ± 14%, the “signal and contrast after 24 hours” value ([1]; after 24 hours, 0.05 mmol/kg) was “returned to baseline levels” and the “contrast between the lymph node and the surrounding muscle” value ([1]; after injection, 0.05 mmol/kg) was “increased”. The “enhancement of stimulated (enlarged) lymph nodes” value ([1]; after injection, 0.05 mmol/kg) was “positive and persistent enhancement”, the “appearance of the metastases (FIGS. 1 and 2, coronal MR images)” value [2, 4] was “remains dark” and the “enhancement in the functional lymph node tissue (FIGS. 1 and 2, coronal MR images)” value [2, 4] was “bright and homogeneous enhancement”. The “enhancement of the metastatic tissue” value ([2]; after intravenous injection, 0.05 mmol Gd/kg, T1-weighted MR) was “only a slight enhancement”, the “signal increase in the functional lymph node tissue” value ([2]; between 5 and 30 min after intravenous injection, 0.05 mmol Gd/kg, T1-weighted MR) was “rapid and strong signal increase” and the “delineation / differentiation of functional and metastatic lymph node tissue” value [2] was “excellent delineation of the lymph node metastases”.
With `O=C([O-])CN(CCN(CC(=O)[O-])CC(=O)O)CCN(CC(=O)[O-])CC(=O)O.[Gd+3]` [Gd-DTPA, reference compound] the “enhancement in the whole lymph node” value ([2]; after intravenous injection, 0.2 mmol Gd/kg, T1-weighted MR) was “only a slight and inhomogeneous enhancement” and the “delineation / differentiation of functional and metastatic lymph node tissue” value [2] was “does not allow an effective differentiation”.

Source: patent publication US20080044358A1, “METHODS FOR LYMPH SYSTEM IMAGING” (priority 2006, published 2008)
